Experimental data taken from publication PMC4918930, “Investigation of Elemental Mass Spectrometry in Pharmacology for Peptide Quantitation at Femtomolar Levels” (PLoS ONE, 2016).
Residues, ends and D or L forms follow the SMILES beside them.

Biological target: T1, human V1A receptor (Homo sapiens, UniProt P37288)
T1 construct: expressed in transfected cells
Test: Saturation experiment with RP-LC-ICP-MS (78Se) read-out on CHO cells stably expressing the human V1A receptor
Settings: [Se-Se]-AVP 0.05 nM to 80 nM, non-specific with 2000-fold excess of AVP, binding buffer pH 7.4, 4 h at 4°C, 1% TFA dissociation, mean of 2 independent experiments carried out in triplicate, ±SD, read-out: dissociation constant (Kd)
Method: (§1) Assays were performed in triplicate.
as §1

T1 sequence (P37288 whole entry): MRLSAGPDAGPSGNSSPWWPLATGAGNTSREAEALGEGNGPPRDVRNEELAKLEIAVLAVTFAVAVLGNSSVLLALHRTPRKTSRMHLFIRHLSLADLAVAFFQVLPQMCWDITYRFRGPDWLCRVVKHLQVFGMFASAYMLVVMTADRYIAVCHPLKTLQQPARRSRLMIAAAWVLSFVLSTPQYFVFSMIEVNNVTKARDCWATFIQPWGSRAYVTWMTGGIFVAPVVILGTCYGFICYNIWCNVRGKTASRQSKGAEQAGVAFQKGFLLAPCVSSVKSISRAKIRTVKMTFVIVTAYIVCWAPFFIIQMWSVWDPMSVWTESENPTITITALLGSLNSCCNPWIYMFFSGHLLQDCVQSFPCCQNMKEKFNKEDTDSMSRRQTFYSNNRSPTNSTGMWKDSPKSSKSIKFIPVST

## N=C(N)NCCC[C@H](NC(=O)[C@@H]1CCCN1C(=O)[C@@H]1C[Se][Se]C[C@H](N)C(=O)N[C@@H](Cc2ccc(O)cc2)C(=O)N[C@@H](Cc2ccccc2)C(=O)N[C@@H](CCC(N)=O)C(=O)N[C@@H](CC(N)=O)C(=O)N1)C(=O)NCC(N)=O [[Se-Se]-AVP] (HELM PEPTIDE1{[N[C@@H](C[Se][*:3])C(=O)[*:2]].Y.F.Q.N.[O=C([C@H](C[Se][*:3])N[*:1])[*:2]].P.R.G.[am]}$PEPTIDE1,PEPTIDE1,1:R3-6:R3$$$V2.0)
  Kd: 0.99 ± 0.14 nM
